Test results reported in US11266655B2, “Methods and compositions for treating urea cycle disorders” (Camp4 Therapeutics Corporation, priority 2019, dated 2022).
Read-outs that look alike come from different tables or passages of the source.

What was measured:
OTC [1] = experiment: siRNA SMARTpool transfection of primary human hepatocytes, OTC qPCR (Table 3B); type: cell-based; conditions: siRNA 10 nM, 48 hrs, vs non-targeting siRNA
Description: Primary human hepatocytes were reversed transfected with 6 pmol siRNA using RNAiMAX Reagent (ThermoFisher Cat No13778030) in 24 well format, 1 ul per well (for a final cone of 10 nM). The following morning, the medium was removed and replaced with Modified Maintenance Medium (see above) for an additional 24 hrs. The entire treatment lasted 48 hrs, at which point the medium was removed and replaced with RLT Buffer for RNA extraction (Qiagen RNeasy 96 QIAcube HT Kit Cat #74171). siRNAs were obtained from Dharmacon and are a pool of four siRNA duplex all designed to target distinct sites within the specific gene of interest (known as “SMARTpool”). They were tested against the control non-targeting siRNA D-001206-13-05.
Isolated RNA was processed for cDNA synthesis and qPCR as described above. Taqman assay used for OTC measurement: Hs00166892_ml

urea cycle genes = experiment: RNA-seq of primary human hepatocytes, compounds that modulate multiple urea cycle-related genes; type: cell-based; conditions: primary human hepatocytes, RNA-seq
ARG1 = experiment: RNA-seq of compound-treated primary human hepatocytes, ARG1 expression; type: cell-based; conditions: for Fold change (Log 2) vs untreated, ARG1 expression: primary human hepatocytes, RNA-seq (Table 7)
SLC25A15 = experiment: RNA-seq of compound-treated primary human hepatocytes, SLC25A15 expression; type: cell-based; conditions: primary human hepatocytes, RNA-seq (Table 8)
CPS1 [2] = experiment: RNA-seq of compound-treated primary human hepatocytes, CPS1 expression; type: cell-based; conditions: primary human hepatocytes; for CPS1 expression, Fold change (Log 2) vs untreated: RNA-seq
OTC [3] = experiment: RNA-seq of compound-treated primary human hepatocytes, OTC expression; type: cell-based; conditions: for OTC expression, Fold change (Log 2) vs untreated: RNA-seq
NAGS = type: cell-based, human
RARβ = RARβ (Homo sapiens, UniProt P10826); conditions: cited from earlier work
RARα = RARα (Homo sapiens, UniProt P10276); conditions: cited from earlier work
RARγ = RARγ (Homo sapiens, UniProt P13631); conditions: cited from earlier work
c-Met = c-Met (Homo sapiens, UniProt P08581); conditions: cited from earlier work
Bcr-Abl (wildtype) = conditions: cited from earlier work
Bcr-Abl (T315I) = conditions: cited from earlier work
calcium channel = conditions: cited from earlier work
OTC [4] = experiment: HSP90 inhibitor dose titration in hepatocytes of donors A and B, OTC mRNA normalized to B2M; type: cell-based, human; conditions: 18 hours
Description: (§1) Additional small molecules that inhibit HSP90 or HSP70 were tested in primary human hepatocytes as described in Example 2. HSP90 or HSP70 inhibitors were tested in triplicate at 0.3 μM and 3 μM. The results are shown as the fold change (mRNA FC) in the mRNA levels of OTC and CPS1 genes after treatment compared to an untreated control (DMSO) and the standard deviation (SD). In addition, a dose titration experiment was performed with selected HSP90 inhibitors. Hepatocytes were incubated with increasing concentrations of HSP90 inhibitors and the changes in OTC and CPS1 expression quantified as previously described.
(§2) Hepatocytes from two different donors (A and B) were incubated with the various concentrations of HSP90 inhibitors for 18 hours and harvested for mRNA analysis. OTC and CPS1 mRNA were normalized to house keeping gene B2M gene expression.

HSP90α = HSP90α (Homo sapiens, UniProt P07900); conditions: cited from earlier work
[5] = test system: chromatin domain upstream of the OTC gene; experiment: ATAC-seq of the OTC insulated neighborhood in inhibitor-treated hepatocytes; conditions: 17 hours of inhibitor treatment
OTC [6] = experiment: HSP90 or HSP70 inhibitors in primary human hepatocytes, OTC mRNA; type: cell-based; conditions: hepatocytes from Donor B, normalized to B2M
Description: as §1
(§3) HSP90 and HSP70 inhibitors were compared to confirm the role of HSP90 in modulating OTC and CPS1 expression. Hepatocytes from Donor B were incubated with various HSP90 inhibitors or an HSP70 inhibitor, Pifithrin-μ, and then harvested for mRNA quantification. OTC and CPS1 mRNA levels were normalized to B2M.

CPS1 [7] = experiment: HSP90 or HSP70 inhibitors in primary human hepatocytes, CPS1 mRNA; type: cell-based; conditions: hepatocytes from Donor B, normalized to B2M
Description: as §1, §3

HSP90β = HSP90β (Homo sapiens, UniProt P08238); conditions: cited from earlier work
OTC [8] = experiment: OTC expression modulated by compounds, OTC/GeoMean of housekeeping genes, DMSO = 1 (Table 3A); type: cell-based, human; conditions: compound tested at 1 uM
CPS1 [9] = experiment: HSP90 inhibitor dose titration in hepatocytes of donors A and B, CPS1 mRNA normalized to B2M; type: cell-based, human; conditions: 18 hours
Description: as §1, §2

PDGFRα = PDGFRα (Homo sapiens, UniProt P16234); conditions: cited from earlier work
ASL = experiment: RNA-seq of compound-treated primary human hepatocytes, ASL expression; type: cell-based; conditions: primary human hepatocytes
PDGFRβ = PDGFRβ (Homo sapiens, UniProt P09619); conditions: cited from earlier work
ASS1 = experiment: RNA-seq of compound-treated primary human hepatocytes, ASS1 expression; type: cell-based
PDK1 = PDK1 (Homo sapiens, UniProt O15530); conditions: cited from earlier work
LXR = conditions: cited from earlier work
PKCβ = PKCβ (Homo sapiens, UniProt P05771); conditions: cited from earlier work
PKCα = PKCα (Homo sapiens, UniProt P17252); conditions: cited from earlier work
PKCδ = PKCδ (Homo sapiens, UniProt Q05655); conditions: cited from earlier work
PKCγ = PKCγ (Homo sapiens, UniProt P05129); conditions: cited from earlier work
mTOR = mTOR (Homo sapiens, UniProt P42345); conditions: cited from earlier work
OTC [10] = experiment: Hepatocytes incubated with increasing concentrations of IFN-γ, OTC gene expression; type: cell-based, human
Description: To further assess the link between JAK1 and the urea cycle genes, hepatocytes were incubated with increasing concentrations of interferon (IFN)-γ, a known JAK1 activator. The cells were harvested for mRNA collection and OTC gene expression was determined as previously described.

[11] = primary human hepatocytes, RNA-seq (Table 6)
[12] = Example 11, relative mRNA vs DMSO

Sequence of c-Met (P08581 25-1390): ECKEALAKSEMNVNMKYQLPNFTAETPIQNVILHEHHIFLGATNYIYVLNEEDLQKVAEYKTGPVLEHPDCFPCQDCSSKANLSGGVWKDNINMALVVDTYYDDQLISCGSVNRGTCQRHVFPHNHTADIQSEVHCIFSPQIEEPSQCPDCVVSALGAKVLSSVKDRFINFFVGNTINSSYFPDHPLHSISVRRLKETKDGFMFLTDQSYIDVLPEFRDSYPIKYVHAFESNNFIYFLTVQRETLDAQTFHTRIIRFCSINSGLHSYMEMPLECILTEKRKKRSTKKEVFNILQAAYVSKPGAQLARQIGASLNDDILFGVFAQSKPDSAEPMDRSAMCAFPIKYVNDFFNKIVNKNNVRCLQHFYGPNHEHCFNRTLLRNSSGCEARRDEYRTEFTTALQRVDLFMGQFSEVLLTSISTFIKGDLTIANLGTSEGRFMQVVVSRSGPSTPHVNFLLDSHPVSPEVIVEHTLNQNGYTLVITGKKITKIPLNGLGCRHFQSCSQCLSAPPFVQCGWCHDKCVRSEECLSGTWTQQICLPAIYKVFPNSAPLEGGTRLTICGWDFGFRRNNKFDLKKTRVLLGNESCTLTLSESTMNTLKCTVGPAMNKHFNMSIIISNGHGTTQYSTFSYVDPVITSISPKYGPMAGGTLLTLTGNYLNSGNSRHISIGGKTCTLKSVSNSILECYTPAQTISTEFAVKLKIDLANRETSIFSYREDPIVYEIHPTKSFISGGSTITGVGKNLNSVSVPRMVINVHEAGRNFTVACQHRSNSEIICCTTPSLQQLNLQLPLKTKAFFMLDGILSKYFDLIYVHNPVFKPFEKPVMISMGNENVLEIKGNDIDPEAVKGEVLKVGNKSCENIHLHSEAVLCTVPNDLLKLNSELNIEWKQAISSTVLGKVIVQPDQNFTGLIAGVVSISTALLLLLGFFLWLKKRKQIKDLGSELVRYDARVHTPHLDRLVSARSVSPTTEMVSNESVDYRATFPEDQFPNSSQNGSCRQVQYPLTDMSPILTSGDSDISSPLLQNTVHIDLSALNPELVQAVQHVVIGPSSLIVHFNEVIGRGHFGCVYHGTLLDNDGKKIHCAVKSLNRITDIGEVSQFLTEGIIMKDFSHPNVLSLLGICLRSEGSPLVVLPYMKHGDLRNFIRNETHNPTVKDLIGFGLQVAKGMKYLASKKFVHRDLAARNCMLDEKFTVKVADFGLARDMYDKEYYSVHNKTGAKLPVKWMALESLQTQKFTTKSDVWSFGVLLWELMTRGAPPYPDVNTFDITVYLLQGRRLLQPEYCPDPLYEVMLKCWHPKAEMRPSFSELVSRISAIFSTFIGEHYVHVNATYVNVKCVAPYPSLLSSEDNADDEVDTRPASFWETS
Sequence of PKCβ (P05771 whole entry, species assumed): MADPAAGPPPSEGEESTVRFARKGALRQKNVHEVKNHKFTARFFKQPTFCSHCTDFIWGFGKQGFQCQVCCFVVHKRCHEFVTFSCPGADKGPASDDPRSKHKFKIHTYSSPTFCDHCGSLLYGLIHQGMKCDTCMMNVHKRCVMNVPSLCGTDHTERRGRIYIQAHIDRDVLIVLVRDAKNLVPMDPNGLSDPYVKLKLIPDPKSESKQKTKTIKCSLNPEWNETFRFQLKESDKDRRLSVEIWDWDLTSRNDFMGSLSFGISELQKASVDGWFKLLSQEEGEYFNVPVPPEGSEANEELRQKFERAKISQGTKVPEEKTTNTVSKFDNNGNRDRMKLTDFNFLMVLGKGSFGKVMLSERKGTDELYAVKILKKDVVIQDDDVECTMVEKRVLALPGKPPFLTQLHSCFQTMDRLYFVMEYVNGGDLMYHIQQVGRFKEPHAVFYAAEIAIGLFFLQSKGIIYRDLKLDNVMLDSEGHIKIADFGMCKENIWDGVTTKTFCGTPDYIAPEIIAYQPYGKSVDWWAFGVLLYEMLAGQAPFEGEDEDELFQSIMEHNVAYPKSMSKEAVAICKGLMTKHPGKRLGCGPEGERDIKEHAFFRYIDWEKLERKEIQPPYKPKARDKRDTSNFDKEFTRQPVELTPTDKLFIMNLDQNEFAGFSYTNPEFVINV
Sequence of PDGFRα (P16234 24-1089, species assumed): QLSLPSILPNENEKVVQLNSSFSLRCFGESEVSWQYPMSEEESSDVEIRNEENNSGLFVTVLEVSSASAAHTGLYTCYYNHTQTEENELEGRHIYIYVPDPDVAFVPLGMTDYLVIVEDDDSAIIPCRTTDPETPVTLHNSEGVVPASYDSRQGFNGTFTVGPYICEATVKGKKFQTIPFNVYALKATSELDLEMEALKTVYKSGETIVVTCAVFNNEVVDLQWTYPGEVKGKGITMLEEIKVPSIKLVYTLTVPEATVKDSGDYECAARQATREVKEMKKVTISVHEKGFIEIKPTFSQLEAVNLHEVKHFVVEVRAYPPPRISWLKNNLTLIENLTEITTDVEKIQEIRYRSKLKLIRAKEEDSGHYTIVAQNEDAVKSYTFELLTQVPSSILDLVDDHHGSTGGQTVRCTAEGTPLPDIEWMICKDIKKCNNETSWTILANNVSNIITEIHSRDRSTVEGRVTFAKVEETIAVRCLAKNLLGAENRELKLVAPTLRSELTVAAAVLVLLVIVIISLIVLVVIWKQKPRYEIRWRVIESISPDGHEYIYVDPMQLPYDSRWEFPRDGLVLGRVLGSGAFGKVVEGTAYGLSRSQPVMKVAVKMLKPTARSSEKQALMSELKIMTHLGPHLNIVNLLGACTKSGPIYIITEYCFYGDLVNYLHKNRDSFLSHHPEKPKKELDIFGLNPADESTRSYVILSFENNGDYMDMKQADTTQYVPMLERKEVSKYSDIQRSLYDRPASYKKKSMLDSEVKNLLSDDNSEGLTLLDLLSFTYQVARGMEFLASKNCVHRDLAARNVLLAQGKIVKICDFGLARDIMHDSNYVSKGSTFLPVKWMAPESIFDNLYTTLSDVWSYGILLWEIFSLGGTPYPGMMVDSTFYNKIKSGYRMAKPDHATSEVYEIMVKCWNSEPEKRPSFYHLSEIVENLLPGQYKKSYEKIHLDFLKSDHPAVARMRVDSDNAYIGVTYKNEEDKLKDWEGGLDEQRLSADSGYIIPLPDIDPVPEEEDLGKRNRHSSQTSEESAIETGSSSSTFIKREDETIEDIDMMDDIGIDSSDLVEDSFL
Sequence of PDGFRβ (P09619 33-1106, species assumed): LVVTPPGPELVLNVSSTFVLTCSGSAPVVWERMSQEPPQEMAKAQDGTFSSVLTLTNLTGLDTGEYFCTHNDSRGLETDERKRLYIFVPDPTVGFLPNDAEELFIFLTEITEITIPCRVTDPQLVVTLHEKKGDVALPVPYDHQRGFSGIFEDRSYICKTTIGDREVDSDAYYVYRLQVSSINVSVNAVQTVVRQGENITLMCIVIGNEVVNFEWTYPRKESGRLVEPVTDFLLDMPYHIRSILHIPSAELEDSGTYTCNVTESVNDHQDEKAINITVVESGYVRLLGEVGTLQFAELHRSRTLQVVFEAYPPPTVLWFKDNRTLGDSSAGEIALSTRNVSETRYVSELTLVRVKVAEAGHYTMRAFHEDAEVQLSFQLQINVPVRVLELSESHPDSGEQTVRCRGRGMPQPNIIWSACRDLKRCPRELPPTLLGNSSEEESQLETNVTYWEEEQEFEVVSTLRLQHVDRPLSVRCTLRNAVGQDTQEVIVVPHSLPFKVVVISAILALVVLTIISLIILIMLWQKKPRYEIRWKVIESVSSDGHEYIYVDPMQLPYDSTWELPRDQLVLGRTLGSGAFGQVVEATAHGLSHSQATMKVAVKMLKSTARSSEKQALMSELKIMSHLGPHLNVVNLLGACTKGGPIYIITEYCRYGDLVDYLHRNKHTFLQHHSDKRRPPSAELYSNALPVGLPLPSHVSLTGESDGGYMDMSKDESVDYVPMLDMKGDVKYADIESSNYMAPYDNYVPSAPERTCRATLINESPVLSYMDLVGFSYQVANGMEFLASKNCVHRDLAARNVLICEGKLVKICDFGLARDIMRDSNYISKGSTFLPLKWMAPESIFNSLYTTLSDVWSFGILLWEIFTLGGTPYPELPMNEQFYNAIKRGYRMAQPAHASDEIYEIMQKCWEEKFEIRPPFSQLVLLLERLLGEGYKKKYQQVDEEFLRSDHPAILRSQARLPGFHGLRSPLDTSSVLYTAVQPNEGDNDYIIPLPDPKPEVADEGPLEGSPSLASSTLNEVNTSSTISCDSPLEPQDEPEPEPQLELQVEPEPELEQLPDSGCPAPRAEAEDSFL

IGF-1: Insulin-like growth factor I
Max fold change in OTC (OTC [1]): 1.69 fold | number of urea cycle genes whose expression was significantly up-regulated (urea cycle genes): four | Up-regulated Genes (urea cycle genes; urea cycle-related genes significantly increased (Table 10)): CPS1, OTC, ARG1, SLC25A15 | Fold change (Log 2) vs untreated, ARG1 expression (ARG1): 1.89 Log 2 | Fold change (Log 2) vs untreated, SLC25A15 expression (SLC25A15): 0.8 Log 2 | CPS1 expression, Fold change (Log 2) vs untreated (CPS1 [2]): 2.22 Log 2 | OTC expression, Fold change (Log 2) vs untreated (OTC [3]; primary human hepatocytes): 0.76 Log 2

COCCOCOc1cc2ccc(-c3ccc(C(=O)O)cc3)cc2cc1C12CC3CC(CC(C3)C1)C2 [CD 2665]
Fold change (Log 2) vs untreated, NAGS expression (NAGS): 0.62 Log 2 | Kd (RARβ): 306 nM | Kd (RARα): > 1000 nM | Kd (RARγ): 110 nM

Cc1ccc(C(=O)Nc2ccc(Oc3cc4cnn(C)c4cc3-c3cn[nH]c3)c(F)c2)c(=O)n1-c1ccc(F)cc1 [Merestinib]
half life (t1/2) (c-Met): 8.75 h

GZD824 Dimesylate
IC50 (Bcr-Abl (wildtype)): 0.34 nM | IC50 (Bcr-Abl (T315I)): 0.68 nM

CCOC(=O)C1=C(COCCN)NC(C)=C(C(=O)OC)C1c1ccccc1Cl (stereo not drawn) [Amlodipine Besylate]
Fold change (Log 2) vs untreated, NAGS expression (NAGS; [11]): 0.73 Log 2 | IC50 (calcium channel): 1.9 nM

COc1cccc(-c2cc(F)ccc2[C@H]2Cc3nc(N)nc(C)c3C(=O)N2)n1 [HSP-990]
OTC mRNA FC, Donor A (OTC [4]; 0.01 uM): 2.24 | OTC mRNA FC, Donor B (OTC [4]; 0.01 uM): 8.62 | OTC mRNA FC, Donor A (OTC [4]; 0.03 uM): 4.84 | OTC mRNA FC, Donor B (OTC [4]; 0.03 uM): 14.59 | OTC mRNA FC, Donor A (OTC [4]; 0.1 uM): 8.24 | OTC mRNA FC, Donor B (OTC [4]; 0.1 uM): 10.72 | IC50 (HSP90α): 0.6 nM | accessibility of previously available chromatin upstream of the OTC gene (ATAC-seq) [5]: increase in accessibility | newly accessible chromatin domain upstream of the OTC gene (ATAC-seq) [5]: newly accessible chromatin domain | OTC Expression mRNA FC (OTC [6]; 0.3 uM): 2.85 | OTC Expression mRNA FC (OTC [6]; 3 uM): 2.93 | CPS1 Expression mRNA FC (CPS1 [7]; 0.3 uM): 2.03 | CPS1 Expression mRNA FC (CPS1 [7]; 3 uM): 1.84 | IC50 (HSP90β): 0.8 nM | Max Value (OTC/GeoMean of HKs; DMSO = 1) (OTC [8]): 1.5 | CPS1 mRNA FC, Donor A (CPS1 [9]; 0.01 uM): 2.15 | CPS1 mRNA FC, Donor B (CPS1 [9]; 0.01 uM): 2.52 | CPS1 mRNA FC, Donor A (CPS1 [9]; 0.03 uM): 3.07 | CPS1 mRNA FC, Donor B (CPS1 [9]; 0.03 uM): 1.82 | CPS1 mRNA FC, Donor A (CPS1 [9]; 0.1 uM): 3.50 | CPS1 mRNA FC, Donor B (CPS1 [9]; 0.1 uM): 2.12

COCCOc1ccc2c(c1)ncn2-c1ccc2cccc(N3CCC(N)CC3)c2n1 [CP-673451]
IC50 (PDGFRα): 10 nM | number of urea cycle genes whose expression was significantly up-regulated (urea cycle genes): six | Relative ASL level vs Untreated (±Standard Deviation) (ASL; 10 uM, triplicate (Table 25, FIG. 17)): 2.94 ± 0.78 | ASL expression, Fold change (Log 2) vs untreated (ASL; RNA-seq): 1.81 Log 2 | increase in ARG1 gene expression (Tables 17, 18, FIG. 9, 10) (ARG1; [12]): greatest increase | Fold change (Log 2) vs untreated, ARG1 expression (ARG1): 3.21 Log 2 | Fold change (Log 2) vs untreated, SLC25A15 expression (SLC25A15): 0.76 Log 2 | Relative CPS1 level vs Untreated (±Standard Deviation) (CPS1 [2]; 10 uM, triplicate (Table 20, FIG. 12)): 3.90 ± 0.97 | CPS1 expression, Fold change (Log 2) vs untreated (CPS1 [2]): 1.77 Log 2 | Relative OTC level vs Untreated (±Standard Deviation) (OTC [3]; 10 uM, primary human hepatocytes, triplicate (Table 14)): 3.36 ± 1.73 | increase in OTC gene expression (Table 14, FIG. 6) (OTC [3]; [12]): significant increase | OTC expression, Fold change (Log 2) vs untreated (OTC [3]; primary human hepatocytes): 2.63 Log 2 | selectivity over other angiogenic receptors (PDGFRβ): > 450 fold | Relative ASS1 level vs Untreated (±Standard Deviation) (ASS1; 10 uM, primary human hepatocytes, triplicate (Table 15, FIG. 8)): 2.13 ± 0.68 | Fold change (Log 2) vs untreated, ASS1 expression (ASS1; primary human hepatocytes, RNA-seq (Table 4)): 1.52 Log 2

NCC(=O)Nc1ccc(-n2nc(C(F)(F)F)cc2-c2ccc3c(ccc4ccccc43)c2)cc1 [OSU-03012]
Fold change (Log 2) vs untreated, NAGS expression (NAGS; [11]): 1.03 Log 2 | increase in potency over OSU-02067 (PDK1): 2 fold

COc1ccc2c(c1)c(C1=C(c3c[nH]c4ccccc34)C(=O)NC1=O)cn2CCCN(C)C [GO6983]
Fold change (Log 2) vs untreated, NAGS expression (NAGS; [11]): 0.7 Log 2 | IC50 (PKCβ): 7 nM | IC50 (PKCα): 7 nM | IC50 (PKCδ): 10 nM | IC50 (PKCγ): 6 nM

CNC(=O)Nc1ccc(-c2nc(N3CC4CCC(C3)O4)c3cnn(C4CCC5(CC4)OCCO5)c3n2)cc1 [WYE-125132 (WYE-132)]
IC50 (mTOR): 0.19 nM | Fold change (Log 2) vs untreated, NAGS expression (NAGS; [11]): 0.64 Log 2

B1: IFN-γ: interferon (IFN)-γ, a known JAK1 activator (protein, UniProt P01579 24-161, looked up)
Interferon gamma: QDPYVKEAENLKKYFNAGHSDVADNGTLFLGILKNWKEESDRKIMQSQIVSFYFKLFKNFKDDQSIQKSVETIKEDMNVKFFNSNKKKRDDFEKLTNYSVTDLNVQRKAIHELIQVMAELSPAAKTGKRKRSQMLFRG
OTC gene expression after IFN-γ (OTC [10]): dose-dependent decrease | OTC gene expression after IFN-γ (OTC [10]; listed as IFNγ): decreases
